Measurements reported in patent publication US10246489B2, “Peptide inhibitors of calcium oxalate monohydrate crystallization and uses thereof” (UNIVERSITY OF HOUSTON, priority 2013, dated 2019).
“Also recorded” adds a separate entry of the source.

Legend:
[1] = In situ calcium ion-selective electrode (ISE) measurement of COM crystallization; settings: for percent reduction in COM growth rate: 20 μg/ml additive, supersaturated calcium oxalate S=5.4, stirred, ISE slope in first 40 min vs control; for increase in peptide efficacy on replacing L-Ala spacer with L-Asp binder (relative to peptide D7): ISE, 20 μg/ml, series D7, D8, D9
Experimental: The COM growth rate was measured as the slope (dCa/dt) of decreasing Ca^2+ concentration within the first 40 min of crystallization. […] The percent reduction in COM growth rate was calculated by comparing the ISE slopes of peptides and control using the formula, Percent Reduction=[1−(dCa/dt)peptide/(dCa/dt)control]×100%. Data are averages of 2 or 3 measurements (error bars equal two standard deviations);
COM crystals for bulk crystallization studies were synthesized using a reported procedure that produces micron-sized crystals with large basal (100) surfaces. COM crystals prepared with molar composition 0.7 mM CaCl2: 0.7 mM Na2C2O4: 150 mM NaCl are referred to as the control. Growth solutions prepared with peptides used 20 μg/ml of the additive (unless otherwise stated).
As such, measurements reported herein were conducted at a single peptide concentration (20 μg/ml) to assess COM growth inhibition. To facilitate comparison of peptides in Table 1, Applicants calculated the percent reduction in COM growth rate using the relative difference in ISE slopes (units of ppm Ca^2+ per time) for peptide and control samples during the first 40 min of crystallization.
The slope of ISE curves (FIG. 2A) is the temporal change in free Ca^2+ concentration due to COM nucleation (primary and secondary) and crystal growth. Deconvoluting these two processes (nucleation and growth) from ISE data is nontrivial, particularly if one wishes to extract detailed kinetic information of COM growth rates. […] In the current study, the distinct advantage of ISE compared to more traditional approaches is its ease of use and the rapid time for data acquisition that enables high-throughput analysis of large peptide libraries.
A quantitative comparison of peptide efficacy for inhibiting COM crystallization was performed using in situ ISE measurements. The percent inhibition in COM growth rate was calculated using the relative difference in ISE slopes in the presence of 20 μg/mL peptide. […] The effect of Asp with Glu in peptide sequences was measured on COM growth inhibition (Table 2).

[2] = Bulk crystallization studies of COM crystal size and habit (optical microscopy, SEM, AFM); settings: for COM crystal habit / morphology: bulk crystallization with 20 μg/ml peptide
Experimental: FIGS. 4A-4B show macroscopic characterization of COM crystals from bulk crystallization in solutions of 0.5 mM CaC2O4 and 20 μg/ml peptide. Optical microscopy was used to measure: Percent distribution of elongated hexagonal platelet (shaded bars) and diamond platelet (pattern bars) crystal morphologies (FIG. 4A); and length of the COM (100) basal surface measured along the direction (i.e. apical tip-to-tip distance) for hexagonal and diamond morphologies (FIG. 4B). Data in (FIG. 4A) and (FIG. 4B) are the average of three separate crystallization experiments performed at 60° C. for 3 days (error bars equal one standard deviation). Data for peptide D4 (diamond habit) was omitted based on too few crystals for statistical analysis;
COM crystals for bulk crystallization studies were synthesized using a reported procedure that produces micron-sized crystals with large basal (100) surfaces. COM crystals prepared with molar composition 0.7 mM CaCl2: 0.7 mM Na2C2O4: 150 mM NaCl are referred to as the control. Growth solutions prepared with peptides used 20 μg/ml of the additive (unless otherwise stated). The crystals were characterized by optical microscopy using a Leica DM2500-M microscope, scanning electron microscope (SEM) using a FEI 235 Dual-Beam Focused Ion-beam instrument, atomic force microscopy (AFM) using an Asylum MFP-3D-SA instrument (Santa Barbara, Calif.), and a calcium ion-selective electrode (ISE, ThermoScientific).
ISE measurements can be used to screen peptide efficacy, but provide little information regarding the specificity of peptide binding to different surfaces of COM crystals. To this end, Applicants used a second analysis step to identify the effect of peptides on COM crystal size and habit. The influence of the peptide library on macroscopic properties of COM crystals was assessed using bulk crystallization studies and optical and scanning electron microscopy to characterize COM crystals grown in the presence of peptides. In vitro, COM crystallization yields elongated hexagonal platelets with {100} basal surfaces bounded by {010} and crystallographically equivalent {121} apical surfaces (FIG. 3A). […] Applicants observed that multiple peptides in the library reduced growth along the directions, which decreased the crystal aspect ratio (length-to-width) and shifted the morphology from hexagonal to diamond platelets. This change in crystal habit can be attributed to the preferential binding of peptides to COM {121} surfaces, which slows growth along the naturally fast growth directions within the (100) plane.
To more systematically assess the surface topography of COM crystals, Applicants used atomic force microscopy (AFM) to probe the effect of peptides on COM (100) surface roughness. Crystals extracted from control and peptide D5 batches were prepared on AFM sample disks and imaged in air. The RMS roughness for (100) surfaces of hexagonal-shaped crystals from the control and test peptide D5 were approximately 1.0 and 4.3 nm, respectively.
Crystal batches prepared in bulk studies were analyzed using optical microscopy to quantify changes in COM crystal size and aspect ratio. […] Although there were clear differences in the percent population of diamond-shaped crystals among peptides tested in this study, Applicants observed that the size of diamond crystals were generally the same, irrespective of peptide sequence (FIG. 4B). The majority of COM hexagonal platelets in peptide samples had similar size and aspect ratio as the control (here Applicants only report the length of COM crystals in FIG. 4B). A notable exception, however, was peptide D4, which produced a 22% increase in the length-to-width aspect ratio of COM hexagonal crystals, and an increase in the length from 35 μm (control) to 75 μm (peptide D4).

[3] = High-throughput colorimetric calcium depletion assay (crystallization half-time); settings: 37° C., crystallization volume 600 μL, shaking; logistic fit
Experimental: Free calcium concentration in the crystallization solution was measured by a colorimetric assay using Quantichrome DICA 500 Calcium assay kit (BioAssay Systems, Hayward, Calif.). Standard solutions (0, 0.1, 0.2, 0.3, 0.4, 0.5, and 1 mM) were prepared using calcium solutions provided with the kit. Detection reagent was prepared by mixing equal volumes of reagent A and reagent B according to manufacturer's instructions. A 10 μL sample was withdrawn from the top of each crystallization well without disturbing the bottom and dispensed into a 96-well microplate. 100 μL of detection reagent was added to each well and incubated for 3 minutes at room temperature. The absorbance was measured at 612 nm using Biotek Synergy H4 microplate reader (BioTek, Winooski, Vt.). Calcium concentration was determined using a calibration curve prepared from standard calcium solutions.
Time course of depletion of free calcium in the crystallization solution, normalized to the initial concentration, was fitted to a nonlinear logistic function using OriginPro Software (Origin Lab, Northhampton, Mass.). The logistic function relating calcium concentration to time is given by
where [Ca]t is the normalized calcium concentration at time t, A1 is the normalized initial supersaturation concentration (i.e at t=0), A2 is the normalized equilibrium concentration (i.e. at t=∞), p is the hill coefficient which represents slope of the curve at midpoint, and t1/2 is the crystallization half-time (CHT), defined as the time at which crystallization is 50% complete (i.e. [Ca]t1/2=[…]). A1 was fixed at 1, and A2, p and t1/2 were obtained from fitting the data to equation 1. CHT was used as a measure of inhibition potentials of the peptides. A one-way ANOVA in combination with Tukey post hoc test at p<0.05 level was used to probe statistical significance. Applicants' studied the effects of experimental parameters including volume, shaking and temperature on crystallization in designing a high-throughput screening assay. Applicants have shown the logistic model effectively represents the three phases: induction, crystal growth and equilibrium observed in our setup, and CHT (t1/2) can be used as a measure of efficacy of potential crystal growth modifiers. The peptide library screened comprised of Asp and Ala residues (peptides D1-D13) at optimized assay conditions of 37° C., crystallization volume of 600 μL in a shaking environment. […] The high throughput of the assay provides the opportunity to assess the growth modulation potential of crystal growth modifiers at varying modifier concentrations, supersaturations and ionic strengths with relative ease. […] Finally, the assay can be translated to other crystallization systems in a relatively straightforward fashion for rational design and discovery of growth modifiers for specific applications.

[4] = Calcium ISE measurements of COM growth at room temperature, Glu-Ala peptide library
[5] = ISE slopes in the presence of 20 μg/mL peptide, comparison X = D vs X = E

For “A-E-A-A-A-E-E-A-A-A-E-A-A-A-E-E-A-A (AEAAAEEAAAEAAAEEAA; Synthesized Calcium oxalate monohydrate inhibitory polypeptide) [E5]”, the “% inhibition” value [1, 4] was 36 ± 21% and the “% inhibition” value [1, 5] was 36 ± 21%.

In the case of “A-E-A-A-E-A-A-A-E-A-A-E-E-A-A-E-A-A (AEAAEAAAEAAEEAAEAA; Synthesized Calcium oxalate monohydrate inhibitory polypeptide) [E6]”, the “% inhibition” value [1, 4] was 52 ± 16%, the “% inhibition” value [1, 5] was 52 ± 16% and the “COM crystal habit / morphology” value ([2]; SEM) was “polydisperse distribution of crystals; also recorded: less effective than E7”.

For “A-E-A-A-E-A-A-E-A-A-E-A-A-E-A-A-E-A (AEAAEAAEAAEAAEAAEA; Synthesized Calcium oxalate monohydrate inhibitory polypeptide) [E3]”, the “% inhibition” value [1, 5] was 40 ± 18%.

With “A-E-A-A-E-E-A-A-A-A-A-A-E-A-A-E-A-A (AEAAEEAAAAAAEAAEAA; Synthesized Calcium oxalate monohydrate inhibitory polypeptide) [E7]” the “COM crystal habit / morphology” value ([2]; SEM) was “polydisperse distribution of crystals”.

For “AADAAAAADDAAAADAAA (Synthesized Calcium oxalate monohydrate inhibitory polypeptide) [D2]”, the “CHT (hr), crystallization half-time” value [3] was 3.533 h.

In the case of “ADAAADAADAADDAADAA (Synthesized Calcium oxalate monohydrate inhibitory polypeptide) [D3]”, the “CHT (hr), crystallization half-time” value [3] was 4.142 h.

For “ADAAADDAAAAAAAADAA (Synthesized Calcium oxalate monohydrate inhibitory polypeptide) [D7]”, the “percent reduction in COM growth rate” value [1] was under 1%, the “[100] thickness of hexagonal platelets relative to control” value ([2]; SEM, 20 μg/ml peptide) was “decreased the [100] thickness of hexagonal platelets by nearly a factor of two” and the “CHT (hr), crystallization half-time” value [3] was 5.771 h.

For “ADAAADDAAADAAAADAA (Synthesized Calcium oxalate monohydrate inhibitory polypeptide) [D8]”, the “percent reduction in COM growth rate” value [1] was about 6%, the “increase in peptide efficacy on replacing L-Ala spacer with L-Asp binder (relative to peptide D7)” value [1] was “an order of magnitude increase in efficacy” and the “percentage of diamond-shaped crystals in total crystal population” value ([2]; 20 μg/ml peptide, 60° C. for 3 days, optical microscopy, average of three experiments) was “largest populations of diamond-shaped crystals”. For the same substance, the “population of diamond crystals on doubling peptide concentration” value ([2]; concentration increased from 20 to 40 μg/ml) was “did not observe an appreciable increase in the population of diamond crystals” and the “CHT (hr), crystallization half-time” value [3] was 4.792 h.

In the case of “ADAAADDAAADAAADDAA (Synthesized Calcium oxalate monohydrate inhibitory polypeptide) [D9]”, the “percent reduction in COM growth rate” value [1] was 40%, the “% inhibition” value [1, 5] was 36 ± 8% and the “increase in peptide efficacy on replacing L-Ala spacer with L-Asp binder (relative to peptide D7)” value [1] was about 70. For the same substance, the “CHT (hr), crystallization half-time” value [3] was 7.277 h.

With “ADAAADDDAAADAAADDD (Synthesized Calcium oxalate monohydrate inhibitory polypeptide) [D6]” the “factor of increase of the [001] length of hexagonal COM crystals relative to the control” value ([2]; 20 μg/ml peptide) was 1.5 and the “CHT (hr), crystallization half-time” value [3] was 5.041 h.

With “ADAADAAADAADDAADAA (Synthesized Calcium oxalate monohydrate inhibitory polypeptide) [D10]” the “% inhibition” value [1, 5] was 36 ± 5% and the “CHT (hr), crystallization half-time” value [3] was 6.054 h.

With “ADAADAADAADAADAADA (Synthesized Calcium oxalate monohydrate inhibitory polypeptide) [D4]” the “percent reduction in COM growth rate” value [1] was 20%, the “% inhibition” value [1, 5] was 21 ± 10% and the “[001] length of COM hexagonal crystals” value ([2]; 20 μg/ml peptide, control 35 μm) was 75 μm. The “increase in the length-to-width aspect ratio of COM hexagonal crystals” value ([2]; 20 μg/ml peptide, vs control (2.67±0.05)) was 22%, the “COM crystal habit / morphology” value ([2]; SEM) was “higher length-to-width aspect ratio” and the “CHT (hr), crystallization half-time” value [3] was 4.432 h.

For “ADAADDAAAAAADAADAA (Synthesized Calcium oxalate monohydrate inhibitory polypeptide) [D11]”, the “COM crystal habit / morphology” value ([2]; SEM) was “large {121} surface area” and the “CHT (hr), crystallization half-time” value [3] was 5.767 h.

With “ADADADADADADADADAD (Synthesized Calcium oxalate monohydrate inhibitory polypeptide) [D13]” the “CHT (hr), crystallization half-time” value [3] was 8.114 h.

For “ADDAADAADAADDAADDA (Synthesized Calcium oxalate monohydrate inhibitory polypeptide) [D12]”, the “CHT (hr), crystallization half-time” value [3] was 7.135 h.

For “DDDAAAAADDDAAAAADD (Synthesized Calcium oxalate monohydrate inhibitory polypeptide) [D1]”, the “factor of increase of the [001] length of hexagonal COM crystals relative to the control” value ([2]; 20 μg/ml peptide) was 2.0, the “COM crystal habit / morphology” value ([2]; SEM) was “small {121} surface area” and the “CHT (hr), crystallization half-time” value [3] was 6.482 h.
